# According to patent publication US9877980B2, “Method and composition for treatment or prevention of type 2 diabetes and hyperlipidemia” (Chun-Ching Shih, priority 2016, dated 2018):
# Marks after values point to notes of the source that are not given here.
# Legend:
# Assay type in all cases: in vivo
# [1] = system: C57BL/6J mice on high-fat diet (HFD); experiment: Hepatic lipids in HFD mice; conditions: 4 weeks
# Protocol: (§1) The following experiment was performed and approved by the guidelines of the Institutional Animal Care and Use Committee of Central Taiwan University of Science and Technology. The 4-week old male C57BL/6J mice (total amount n=63) were purchased from the National Laboratory Animal Breeding and Research Center (Taipei, Taiwan). After acclimatization for one week, all of the mice were divided randomly into the control (CON) group and the high-fat diet (HFD) group. For the following 12 weeks, the CON group (n=9) was kept on a low-fat diet (Diet 12450B, Research Diets, Inc., New Brunswick, N.J., USA), while the HFD group (n=54) was exposed to a high-fat diet (Diet 12451, Research Diets, New Brunswick, N.J., USA). The low-fat diet was composed of protein 20%, carbohydrate 70% and fat 10%, whereas the high-fat diet was composed of protein 20%, carbohydrate 35%, and fat 45% (of total energy, % kcal). After HFD exposure for 8 weeks, the HFD group was further randomly subdivided into 6 groups (n=9 per group) to receive different treatments by oral gavage once daily for four weeks and on HFD. […] The HF+B1, HF+B2, and […] are collectively termed BB-treated HFD groups in the following examples. The CON mice were administered vehicle. After dosing for 4 weeks, the mice were given no food at night and sacrificed after 12 h of fasting on the next day. All of the individual tissues were collected and weighed, and portions were instantly frozen using liquid nitrogen and kept at −80° C. for subsequent target gene analysis. Blood samples (0.8 mL) were collected for analysis of blood parameters.
# For hepatic lipid extraction, a 0.375 g liver samples were homogenized with 1 mL distill water for 5 minutes. The dried pellet was finally resuspended in 0.5 mL ethanol and analyzed using a triglycerides kit as used for analyzing the serum lipids set forth above.
# [2] = system: C57BL/6J mice on high-fat diet (HFD); experiment: Blood parameters (glucose, insulin, TG, FFA, TC, leptin, adiponectin) in HFD mice; conditions: for Blood parameters Adiponectin / Blood parameters FFA / Blood parameters Leptin / Blood parameters TC / blood level of glucose / blood level of insulin: 4 weeks
# Protocol: as §1, with “For the following 12 weeks, the CON group (n=9) was kept on a low-fat diet (Diet 12450B, Research Diets, Inc., New Brunswick, N.J., USA), while the HFD group (n=54) was exposed to a high-fat diet (Diet 12451, Research Diets, New Brunswick, N.J., USA). The low-fat diet was composed of protein 20%, carbohydrate 70% and fat 10%, whereas the high-fat diet was composed of protein 20%, carbohydrate 35%, and fat 45% (of total energy, % kcal).” left out
# A portion of the blood samples obtained from the retro-orbital sinus of fasted mice were immediately used to measure blood glucose levels using Sidekick glucose analyzer (YSI 1500, YSI Incorporated, Yellow Springs, USA) according to the glucose oxidase method. Heparin (30 units/mL, Sigma) was added into other portions of the blood samples. […] Concentrations of plasma triglycerides (TG), total cholesterol (TC), and free fatty acids (FFA) were determined using commercial assay kits according to the manufacturer's instructions (Triglycerides-E test, Cholesterol-E test, and FFA-C test, Wako Pure Chemical, Osaka, Japan). Plasma insulin, leptin, and adiponectin levels were assessed using commercial assay kits according to the manufacturer's instructions (mouse insulin ELISA kit, Mercodia, Uppsala, Sweden; mouse leptin ELISA kit, Morinaga, Yokohama, Japan; Mouse Adiponectin ELISA kit, Crystal Chem International, Downers Grove, Ill., USA).
# [3] = system: GPAT; experiment: Semi-quantitative RT-PCR of liver mRNA: GPAT; conditions: HFD mice, 4 weeks, vs HF group
# Protocol: as §1, with “For the following 12 weeks, the CON group (n=9) was kept on a low-fat diet (Diet 12450B, Research Diets, Inc., New Brunswick, N.J., USA), while the HFD group (n=54) was exposed to a high-fat diet (Diet 12451, Research Diets, New Brunswick, N.J., USA). The low-fat diet was composed of protein 20%, carbohydrate 70% and fat 10%, whereas the high-fat diet was composed of protein 20%, carbohydrate 35%, and fat 45% (of total energy, % kcal).” left out
# (§2) Total RNA from liver tissue of mice was isolated with a Trizol Reagent (Molecular Research Center, Inc., Cincinnati, Ohio, USA) according to the manufacturer's instructions. The integrity of the extracted total RNA was examined by 2% agarose gel electrophoresis, and the RNA concentration was determined by the ultraviolet (UV) light absorbency at 260 nm and 280 nm (Spectrophotometer U-2800A, Hitachi). The quality of the RNA was confirmed by ethidium bromide staining of 18S and 28S ribosomal RNA after electrophoresis on 2% agarose gel containing 6% formaldehyde.
# (§3) Levels of mRNA of genes of interest were quantified by semi-quantitative reverse transcription polymerase chain reaction (RT-PCR). […] PCR products were analyzed by 2% agarose gels and stained with ethidium bromide.
# [4] = system: PEPCK; experiment: Semi-quantitative RT-PCR of liver mRNA: PEPCK; conditions: HFD mice, 4 weeks, vs HF group
# Protocol: as §1, with “For the following 12 weeks, the CON group (n=9) was kept on a low-fat diet (Diet 12450B, Research Diets, Inc., New Brunswick, N.J., USA), while the HFD group (n=54) was exposed to a high-fat diet (Diet 12451, Research Diets, New Brunswick, N.J., USA). The low-fat diet was composed of protein 20%, carbohydrate 70% and fat 10%, whereas the high-fat diet was composed of protein 20%, carbohydrate 35%, and fat 45% (of total energy, % kcal).” left out
# as §2, §3
# [5] = 10 mg/kg/day oral gavage, vs HF group
# [6] = 20 mg/kg/day oral gavage, vs HF group
# [7] = 40 mg/kg/day oral gavage, vs HF group
structure (smiles),measurement,setting,value
"OCC1O[C@@H](O[C@@H]2Cc3c(O)cc(O)cc3O[C@@H]2c2ccc(O)c(O)c2)C(O)C(O)[C@@H]1O (single isomer, unassigned; (-)) [compound of formula I, (−)-epicatechin-3-O-β-D-allopyranoside]",Liver lipids Total lipid,[1]; 10 mg/kg/day oral gavage,71.9 ± 6.5^d mg/g
same,Liver lipids Triacylglycerol,[1]; 10 mg/kg/day oral gavage,49.9 ± 8.0^d μmol/g
same,Liver lipids Total lipid,[1]; 20 mg/kg/day oral gavage,66.1 ± 6.9^e mg/g
same,Liver lipids Triacylglycerol,[1]; 20 mg/kg/day oral gavage,42.8 ± 6.5^f μmol/g
same,Liver lipids Total lipid,[1]; 40 mg/kg/day oral gavage,60.2 ± 5.2^f mg/g
same,Liver lipids Triacylglycerol,[1]; 40 mg/kg/day oral gavage,40.8 ± 4.6^f μmol/g
same,Blood parameters Adiponectin,[2]; 10 mg/kg/day oral gavage,2.895 ± 0.010^f μg/mL
same,Blood parameters FFA,[2]; 10 mg/kg/day oral gavage,1.11 ± 0.13^d mEq/L
same,Blood parameters Leptin,[2]; 10 mg/kg/day oral gavage,1.662 ± 0.009^f ng/mL
same,Blood parameters TC,[2]; 10 mg/kg/day oral gavage,153.5 ± 7.7 mg/dL
same,blood level of glucose,[2]; [5],markedly lowered
same,blood level of insulin,[2]; [5],markedly lowered
same,Blood parameters Adiponectin,[2]; 20 mg/kg/day oral gavage,3.277 ± 0.052^f μg/mL
same,Blood parameters FFA,[2]; 20 mg/kg/day oral gavage,0.95 ± 0.04^f mEq/L
same,Blood parameters Leptin,[2]; 20 mg/kg/day oral gavage,1.372 ± 0.029^f ng/mL
same,Blood parameters TC,[2]; 20 mg/kg/day oral gavage,144.1 ± 4.0 mg/dL
same,blood level of glucose,[2]; [6],markedly lowered
same,blood level of insulin,[2]; [6],markedly lowered
same,Blood parameters Adiponectin,[2]; 40 mg/kg/day oral gavage,3.628 ± 0.034^f μg/mL
same,Blood parameters FFA,[2]; 40 mg/kg/day oral gavage,0.86 ± 0.09^f mEq/L
same,Blood parameters Leptin,[2]; 40 mg/kg/day oral gavage,1.321 ± 0.008^f ng/mL
same,Blood parameters TC,[2]; 40 mg/kg/day oral gavage,142.9 ± 6.6 mg/dL
same,blood level of glucose,[2]; [7],markedly lowered
same,blood level of insulin,[2]; [7],markedly lowered
same,circulating TG levels,"[2]; oral gavage 4 weeks (formula I 10, 20, 40; Rosi 10; Feno 250 mg/kg/day), vs HF group",decreased
same,liver mRNA level of GPAT,[3]; 10 mg/kg/day oral gavage,significantly reduced
same,liver mRNA level of GPAT,[3]; 20 mg/kg/day oral gavage,significantly reduced
same,liver mRNA level of GPAT,[3]; 40 mg/kg/day oral gavage,significantly reduced
same,liver mRNA level of PEPCK,[4]; 10 mg/kg/day oral gavage,significantly reduced
same,liver mRNA level of PEPCK,[4]; 20 mg/kg/day oral gavage,significantly reduced
same,liver mRNA level of PEPCK,[4]; 40 mg/kg/day oral gavage,significantly reduced
